Assays:
α-glucosidase [1] = biological target: T1, α-glucosidase (Saccharomyces cerevisiae, UniProt P53341); experiment: Anti-α-glucosidase assay (p-nitrophenyl-α-D-glucopyranoside substrate, absorbance 405 nm); type: biochemical; conditions: for Inhibation: IC50 determination curve; for inhibition at 750 µM: read-out: In (%), inhibition percentage against α-glucosidase; for decrease of inhibitory activity relative to un-substituted derivative 13a: methyl group added to phenyl ring of 13a; for inhibitory activity, times more potent than acarbose: ratio of IC50 values vs acarbose
T1 construct: the yeast form of α-glucosidase, which was extracted from Saccharomyces cerevisiae; purchased Sigma-Aldrich; host or cells: Saccharomyces cerevisiae (extracted)
Description: After this time, the p-nitrophenyl-α-D-glucopyranoside (25 μL, 4 mM) was added to the latter plate and allowed to incubate at 37 °C for 20 min. […] The percentage of inhibition (% inhibition) for each sample was calculated using the formula “[(Abs control − Abs sample)/Abs control] × 100”, and IC50 values were obtained from non-linear regression curve using the Logit method.[24]

α-glucosidase [2] = biological target: α-glucosidase; set-up: method as in PMID 31838286; conditions: assay of template compounds B, Fig. 1 and Fig. 5; cited from earlier work
α-glucosidase [3] = biological target: T1, α-glucosidase; experiment: Kinetic study (Lineweaver–Burk method); type: biochemical; conditions: Lineweaver–Burk plots
Description: Then, p-nitrophenyl-α-D-glucopyranoside at various concentrations (1–4 mM) was added to initiate the enzymatic reaction.
The type of inhibition mode was indicated by Lineweaver–Burk plots.

[4] = IC50 (from IC50 determination curves, supplement), logarithmic fit of inhibition vs Conc., unit inferred
[5] = IC50, yeast α-glucosidase, mean ± SD, at least three experiments

T1 sequence (P53341 whole entry): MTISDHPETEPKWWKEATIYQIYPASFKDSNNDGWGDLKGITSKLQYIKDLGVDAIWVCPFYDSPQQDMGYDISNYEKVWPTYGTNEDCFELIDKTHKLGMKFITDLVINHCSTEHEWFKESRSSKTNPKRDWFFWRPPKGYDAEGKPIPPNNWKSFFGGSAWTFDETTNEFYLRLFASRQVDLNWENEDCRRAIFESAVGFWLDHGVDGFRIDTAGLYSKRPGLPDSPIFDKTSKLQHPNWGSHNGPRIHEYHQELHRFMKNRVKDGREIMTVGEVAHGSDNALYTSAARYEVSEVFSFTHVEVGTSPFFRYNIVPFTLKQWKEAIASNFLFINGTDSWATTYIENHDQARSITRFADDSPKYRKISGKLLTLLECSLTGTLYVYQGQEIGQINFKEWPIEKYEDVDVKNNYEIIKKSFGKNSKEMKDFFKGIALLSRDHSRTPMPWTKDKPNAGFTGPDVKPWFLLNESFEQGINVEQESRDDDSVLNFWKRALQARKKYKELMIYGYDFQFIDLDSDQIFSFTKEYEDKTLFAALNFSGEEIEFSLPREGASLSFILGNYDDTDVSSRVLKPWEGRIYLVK

| SMILES | Inhibation (α-glucosidase [1]; Conc. 15 (unit not given)) | Inhibation (α-glucosidase [1]; Conc. 30 (unit not given)) | Inhibation (α-glucosidase [1]; Conc. 60 (unit not given)) | Inhibation (α-glucosidase [1]; Conc. 90 (unit not given)) | Inhibation (α-glucosidase [1]; Conc. 120 (unit not given)) | IC50 (α-glucosidase [1]; [4]) | inhibition at 750 µM (α-glucosidase [1]) | decrease of inhibitory activity relative to un-substituted derivative 13a (α-glucosidase [1]) | IC50 (α-glucosidase [2]) | IC50 (α-glucosidase [1]; [5]) | inhibitory activity, times more potent than acarbose (α-glucosidase [1]) | effect of increasing inhibitor concentration on Vmax and Km (α-glucosidase [3]) | type of inhibition mode (α-glucosidase [3]) | potency relative to 4-methoxy derivative 13f (α-glucosidase [1]; more potent than 13f) |
| --- | --- | --- | --- | --- | --- | --- | --- | --- | --- | --- | --- | --- | --- | --- |
| Cc1ccc(NC(=O)Cn2cc(COc3ccc(/C=N/Nc4nnc(-c5ccccc5)c(-c5ccccc5)n4)cc3)nn2)c(C)c1 [Compound 13d, (E)-N-(2,4-Dimethylphenyl)-2-(4-((4-((2-(5,6-diphenyl-1,2,4-triazin-3-yl)hydrazineylidene)methyl)phenoxy)methyl)-1H-1,2,3-triazol-1-yl)acetamide] | 61.12 | 65.17 | 68 | 72 | 74 | < 15 µM | 75% |  |  |  |  |  |  |  |
| Cc1cccc(NC(=O)Cn2cc(COc3ccc(/C=N/Nc4nnc(-c5ccccc5)c(-c5ccccc5)n4)cc3)nn2)c1 [Compound 13c, (E)-2-(4-((4-((2-(5,6-Diphenyl-1,2,4-triazin-3-yl)hydrazineylidene)methyl)phenoxy)methyl)-1H-1,2,3-triazol-1-yl)-N-(m-tolyl)acetamide] | 74.8 | 80.67 | 93 | 96 | 97 | < 15 µM | 100% | 2.25 fold |  |  |  |  |  |  |
| O=C(Cn1cc(COc2ccc(/C=N/Nc3nnc(-c4ccccc4)c(-c4ccccc4)n3)cc2)nn1)NCCc1ccccc1 [Compound 13n, (E)-2-(4-((4-((2-(5,6-Diphenyl-1,2,4-triazin-3-yl)hydrazineylidene)methyl)phenoxy)methyl)-1H-1,2,3-triazol-1-yl)-N-phenethylacetamide] | 79.27 | 84.67 | 90 | 93 | 98 | < 15 µM | 100% |  |  |  |  |  |  |  |
| O=C(Cn1cc(COc2ccc(-c3nc4ccccc4[nH]3)cc2)nn1)NCc1ccccc1 [B (R = H, n = 1)] |  |  |  |  |  |  |  |  | 121 µM |  |  |  |  |  |
| COc1ccc(NC(=O)Cn2cc(COc3ccc(-c4nc5ccccc5[nH]4)cc3)nn2)cc1 [B (R = 4-OMe, n = 0)] |  |  |  |  |  |  |  |  | 112 µM |  |  |  |  |  |
| O=C(Cn1cc(COc2ccc(/C=N/Nc3nnc(-c4ccccc4)c(-c4ccccc4)n3)cc2)nn1)Nc1ccccc1[N+](=O)[O-] [Compound 13l, (E)-2-(4-((4-((2-(5,6-Diphenyl-1,2,4-triazin-3-yl)hydrazineylidene)methyl)phenoxy)methyl)-1H-1,2,3-triazol-1-yl)-N-(2-nitrophenyl)acetamide] | 37.76 | 48.45 | 59 | 65 | 67 | 34.2 µM | 69% |  |  | 34.2 ± 0.57 µM | 21.9 fold |  |  |  |
| COc1ccc(NC(=O)Cn2cc(COc3ccc(/C=N/Nc4nnc(-c5ccccc5)c(-c5ccccc5)n4)cc3)nn2)cc1 [Compound 13f, (E)-2-(4-((4-((2-(5,6-Diphenyl-1,2,4-triazin-3-yl)hydrazineylidene)methyl)phenoxy)methyl)-1H-1,2,3-triazol-1-yl)-N-(4-methoxyphenyl)acetamide] | 56 | 72.67 | 89 | 98 |  | 10.9 µM | 100% |  |  | 10.9 ± 0.24 µM |  |  |  |  |
| O=C(Cn1cc(COc2ccc(/C=N/Nc3nnc(-c4ccccc4)c(-c4ccccc4)n3)cc2)nn1)NCc1ccccc1 [Compound 13m, (E)-N-Benzyl-2-(4-((4-((2-(5,6-diphenyl-1,2,4-triazin-3-yl)hydrazineylidene)methyl)phenoxy)methyl)-1H-1,2,3-triazol-1-yl)acetamide] | 70 | 80 | 87 | 88.3 | 89 |  | 90% |  |  |  |  |  |  |  |
| O=C(Cn1cc(COc2ccc(/C=N/Nc3nnc(-c4ccccc4)c(-c4ccccc4)n3)cc2)nn1)Nc1ccc(Cl)cc1 [Compound 13j, (E)-N-(4-Chlorophenyl)-2-(4-((4-((2-(5,6-diphenyl-1,2,4-triazin-3-yl)hydrazineylidene)methyl)phenoxy)methyl)-1H-1,2,3-triazol-1-yl)acetamide] | 73.02 | 75.43 | 79 | 81 |  | < 15 µM | 83% |  |  | 0.12 ± 0.02 µM |  | decrease in both Vmax and Km values | uncompetitive α-glucosidase inhibitor |  |
| O=C(Cn1cc(COc2ccc(-c3nc4ccccc4[nH]3)cc2)nn1)Nc1ccccc1[N+](=O)[O-] [B (R = 2-Nitro, n = 0)] |  |  |  |  |  |  |  |  | 35 µM |  |  |  |  |  |
| O=C(Cn1cc(COc2ccc(/C=N/Nc3nnc(-c4ccccc4)c(-c4ccccc4)n3)cc2)nn1)Nc1ccc(Br)cc1 [Compound 13k, (E)-N-(4-Bromophenyl)-2-(4-((4-((2-(5,6-diphenyl-1,2,4-triazin-3-yl)hydrazineylidene)methyl)phenoxy)methyl)-1H-1,2,3-triazol-1-yl)acetamide] | 49.91 | 56.12 | 60 | 65 | 67 | 15.3 µM | 69% |  |  | 15.3 ± 0.29 µM |  |  |  |  |
| Cc1ccccc1NC(=O)Cn1cc(COc2ccc(/C=N/Nc3nnc(-c4ccccc4)c(-c4ccccc4)n3)cc2)nn1 [Compound 13b, (E)-2-(4-((4-((2-(5,6-Diphenyl-1,2,4-triazin-3-yl)hydrazineylidene)methyl)phenoxy)methyl)-1H-1,2,3-triazol-1-yl)-N-(o-tolyl)acetamide] | 54.87 | 67 | 83 | 93 |  | 12.5 µM | 98% | 15.6 fold |  | 12.5 ± 0.21 µM |  |  |  |  |
| O=C(Cn1cc(COc2ccc(-c3nc4ccccc4[nH]3)cc2)nn1)Nc1ccccc1Cl [B (R = 2-Cl, n = 0)] |  |  |  |  |  |  |  |  | 70.6 µM |  |  |  |  |  |
| CCc1ccc(NC(=O)Cn2cc(COc3ccc(/C=N/Nc4nnc(-c5ccccc5)c(-c5ccccc5)n4)cc3)nn2)cc1 [Compound 13e, (E)-2-(4-((4-((2-(5,6-Diphenyl-1,2,4-triazin-3-yl)hydrazineylidene)methyl)phenoxy)methyl)-1H-1,2,3-triazol-1-yl)-N-(4-ethylphenyl)acetamide] | 69.6 | 82.93 | 95 |  |  | < 15 µM | 100% |  |  |  |  |  |  | around 3 fold |
| O=C(Cn1cc(COc2ccc(-c3nc4ccccc4[nH]3)cc2)nn1)Nc1ccc(Br)cc1 [B (R = 4-Br, n = 0)] |  |  |  |  |  |  |  |  | 176 µM |  |  |  |  |  |
| O=C(Cn1cc(COc2ccc(/C=N/Nc3nnc(-c4ccccc4)c(-c4ccccc4)n3)cc2)nn1)Nc1ccccc1 [Compound 13a, (E)-2-(4-((4-((2-(5,6-Diphenyl-1,2,4-triazin-3-yl)hydrazineylidene)methyl)phenoxy)methyl)-1H-1,2,3-triazol-1-yl)-N-phenylacetamide] | 76.53 | 81.33 | 89 | 93 | 94 | < 15 µM | 95% |  |  |  |  |  |  |  |
| O=C(Cn1cc(COc2ccc(-c3nc4ccccc4[nH]3)cc2)nn1)Nc1ccc(Cl)cc1 [B (R = 4-Cl, n = 0)] |  |  |  |  |  |  |  |  | 91.6 µM |  |  |  |  |  |
| O=C(Cn1cc(COc2ccc(/C=N/Nc3nnc(-c4ccccc4)c(-c4ccccc4)n3)cc2)nn1)Nc1cccc(Cl)c1 [Compound 13i, (E)-N-(3-Chlorophenyl)-2-(4-((4-((2-(5,6-diphenyl-1,2,4-triazin-3-yl)hydrazineylidene)methyl)phenoxy)methyl)-1H-1,2,3-triazol-1-yl)acetamide] | 53.4 | 74.73 | 84 | 98 |  | 11.7 µM | 100% |  |  | 11.7 ± 0.18 µM |  |  |  |  |
| O=C(Cn1cc(COc2ccc(/C=N/Nc3nnc(-c4ccccc4)c(-c4ccccc4)n3)cc2)nn1)Nc1ccccc1F [Compound 13g, (E)-2-(4-((4-((2-(5,6-Diphenyl-1,2,4-triazin-3-yl)hydrazineylidene)methyl)phenoxy)methyl)-1H-1,2,3-triazol-1-yl)-N-(2-fluorophenyl)acetamide] | 69.05 | 72.24 | 76 | 78 |  | < 15 µM | 79% |  |  |  |  |  |  |  |
| O=C(Cn1cc(COc2ccc(-c3nc4ccccc4[nH]3)cc2)nn1)Nc1ccccc1 [B (R = H, n = 0)] |  |  |  |  |  |  |  |  | 51.5 µM |  |  |  |  |  |
| O=C(Cn1cc(COc2ccc(/C=N/Nc3nnc(-c4ccccc4)c(-c4ccccc4)n3)cc2)nn1)Nc1ccccc1Cl [Compound 13h, (E)-N-(2-Chlorophenyl)-2-(4-((4-((2-(5,6-diphenyl-1,2,4-triazin-3-yl)hydrazineylidene)methyl)phenoxy)methyl)-1H-1,2,3-triazol-1-yl)acetamide] | 75.34 | 79.31 | 83 | 86 |  | < 15 µM | 87% |  |  |  | ~3947 fold |  |  |  |

From publication PMC12523282, “New 5,6-diphenyl-1,2,4-triazine-hydrazineylidene-phenoxy-1,2,3-triazole-acetamide derivatives as potent synthetic α-glucosidase inhibitors” (RSC Advances, 2025)
